Values after ≈ are worked out from the molar mass of the structure shown. Blank lines part the entries; values can stand above or below the compound they belong to.
How the values were obtained:
MDA-MB-231 = experiment: Antiproliferative activity against human MDA-MB-231 cells 24 to 48 hrs by MTT assay; type: functional, cell-based
[1] = Cytotoxicity against human […] cells assessed as reduction in cell viability; type: functional, cell-based
MM1.S = experiment: Cytotoxicity against human MM1S cells assessed as reduction in cell viability; type: functional, cell-based
U-266 = experiment: Cytotoxicity against human U266 cells assessed as reduction in cell viability; type: functional, cell-based
LS174T [2] = experiment: Cytotoxicity against human LS174T cells assessed as reduction in cell viability by SRB assay; type: functional, cell-based
LS174T [3] = experiment: Cytotoxicity against human LS174T cells assessed as reduction in cell viability in presence of PTX by SRB assay relative to control; type: functional
MCF7 = experiment: Cytotoxicity against human MCF7 cells assessed as reduction in cell viability by MTT assay; type: functional, cell-based
PANC-1 = experiment: Cytotoxicity against human PANC1 cells assessed as reduction in cell viability by MTT assay; type: functional, cell-based
MIA PaCa-2 = experiment: Cytotoxicity against human MIAPaCa2 cells assessed as reduction in cell viability by MTT assay; type: functional, cell-based
PC-3 = experiment: Cytotoxicity against human PC3 cells assessed as reduction in cell viability by MTT assay; type: functional, cell-based
K562 [4] = experiment: Cytotoxicity against human K562 cells assessed as reduction in cell viability after 48 hrs by SRB assay; type: functional, cell-based; settings: K562, 48 h
HCT-15 = experiment: Cytotoxicity against human HCT15 cells assessed as reduction in cell viability after 48 hrs by SRB assay; type: functional, cell-based; settings: HCT-15, 48 h
[5] = Inhibition of NFkappaB (unknown origin); design: species or system Homo sapiens
[6] = Antioxidant activity assessed as DPPH free radical scavenging activity; type: functional
SW480 = experiment: Cytotoxicity against human SW480 cells assessed as reduction in cell viability after 24 to 48 hrs by MTT assay; type: functional, cell-based
LS174T [7] = experiment: Cytotoxicity against human LS174T cells assessed as reduction in cell viability in presence of PTX by SRB assay; type: functional, cell-based
RAW264.7 = experiment: Anti-inflammatory activity in mouse RAW264.7 cells assessed as inhibition of LPS/IFN-gamma-induced nitric oxide production preincubated for 24 hrs followed by LPS/IFN-gamma-stimulation and measured after 17 hrs by Griess assay; type: functional, cell-based
[8] = Antioxidant activity assessed as DPPH free radical scavenging activity after 30 mins; type: functional
A549 = experiment: Cytotoxicity against human A549 cells assessed as reduction in cell viability after 24 hrs by MTT assay; type: functional, cell-based; settings: A549, 24 h
SGC-7901 = experiment: Cytotoxicity against human SGC7901 cells assessed as reduction in cell viability after 24 hrs by MTT assay; type: functional, cell-based; settings: SGC-7901, 24 h
HepG2 = experiment: Cytotoxicity against human HepG2 cells assessed as reduction in cell viability after 24 hrs by MTT assay; type: functional, cell-based; settings: HepG2, 24 h
HeLa = experiment: Cytotoxicity against human HeLa cells assessed as reduction in cell viability after 24 hrs by MTT assay; type: functional, cell-based
K562 [9] = experiment: Cytotoxicity against human K562 cells assessed as reduction in cell viability after 24 hrs by MTT assay; type: functional, cell-based; settings: K562, 24 h
THP-1 = experiment: Cytotoxicity against human THP1 cells assessed as reduction in cell viability after 24 hrs by MTT assay; type: functional, cell-based; settings: THP-1, 24 h
L02 = experiment: Cytotoxicity against human LO2 cells assessed as reduction in cell viability after 24 hrs by MTT assay; type: cell-based; settings: L02, 24 h
Bacillus subtilis = experiment: Antibacterial activity against Bacillus subtilis after 24 hrs by twofold serial dilution technique; type: functional

SMILES: COc1cc(/C=C/C(=O)/C=C/c2ccc3c(c2)C(=O)N(C2CCC(=O)NC2=O)C3=O)ccc1O (stereo not given)
IC50 [1]: 5.62 µM | IC50 (MM1.S): 7.59 µM | IC50 (U-266): 2.33 µM

SMILES: COc1cc(/C=C/C=C2N=C(/C=C/c3ccccc3)NC\2=O)ccc1O
IC50 (LS174T [2]): 7.6 µM | Activity (LS174T [3]): 2.5 - 45.7%

SMILES: CN1C/C(=C\c2ccc(N(C)C)cc2[N+](=O)[O-])C(=NO)/C(=C/c2ccc(N(C)C)cc2[N+](=O)[O-])C1
IC50 (MCF7): 0.02 µM | IC50 (PANC-1): 0.02 µM | IC50 (MIA PaCa-2): 0.02 µM | IC50 (PC-3): 0.02 µM

SMILES: COc1cc(CCc2cc(CCc3ccc(OC(C)=O)c(OC)c3)on2)ccc1OC(C)=O
IC50 (K562 [4]): 3 µM | IC50 (HCT-15): 2.8 µM

SMILES: O=C(/C=C/c1c[nH]c2ccccc12)CC(=O)/C=C/c1c[nH]c2ccccc12
IC50 (SW480): 15 to 17 µM

SMILES: CCCNC(=O)/C(=C/C=C/c1ccccc1)NC(=O)/C=C/c1ccccc1
IC50 (LS174T [7]): 0.0038 µM | Activity (LS174T [3]): 16.2%

SMILES: CCOC(OCC)c1ccc(/C=C2\CN(C)C/C(=C\c3ccc(C(OCC)OCC)cc3)C2=NO)cc1
IC50 (MCF7): 0.03 µM

SMILES: O=C1/C(=C/c2cc(/N=C/c3ccc(O)c(O)c3O)ccc2F)CNC/C1=C\c1cc(/N=C/c2ccc(O)c(O)c2O)ccc1F
IC50 (A549): < 2 µM | IC50 (SGC-7901): < 2 µM | IC50 (HepG2): < 2 µM | IC50 (HeLa): < 2 µM | IC50 (K562 [9]): < 2 µM | IC50 (THP-1): < 2 µM | IC50 (L02): < 2 µM

SMILES: O=C1NC(/C=C/c2ccccc2)=NC/1=C\C=C\c1ccccc1
IC50 (LS174T [2]): 8.9 µM

SMILES: COc1cc(/C=C/C(=O)C(=Cc2ccc3c(c2)C(=O)N(C2CCC(=O)NC2=O)C3=O)C(=O)/C=C/c2ccc(O)c(OC)c2)ccc1O (stereo not given)
IC50 [1]: 4.55 µM | IC50 (MM1.S): 6.44 µM | IC50 (U-266): 96 µM

Second part, the compound after the results:

IC50 (MDA-MB-231; mda-mb-231): 50.4 ppm
SMILES: O=C(/C=C/c1cn(-c2ccccc2)nc1-c1ccc([N+](=O)[O-])cc1)/C=C/c1cn(-c2ccccc2)nc1-c1ccc([N+](=O)[O-])cc1

IC50 (MDA-MB-231; mda-mb-231): 20.5 ppm
SMILES: CN1C/C(=C\c2cn(-c3ccccc3)nc2-c2ccccc2)C(=O)/C(=C/c2cn(-c3ccccc3)nc2-c2ccccc2)C1

IC50 (MDA-MB-231; Homo sapiens, MDA-MB-231): 11.6 µM
SMILES: O=C1/C(=C/c2cn(-c3ccccc3)nc2-c2ccccc2)CCCC/C1=C\c1cn(-c2ccccc2)nc1-c1ccccc1

IC50 (MDA-MB-231; mda-mb-231): 32.4 ppm
SMILES: O=C1/C(=C/c2cn(-c3ccccc3)nc2-c2ccc([N+](=O)[O-])cc2)CCCC/C1=C\c1cn(-c2ccccc2)nc1-c1ccc([N+](=O)[O-])cc1

IC50 [5]: 2.8 µg/mL (≈ 5.99 µM)
SMILES: C=CC(=O)NC(c1ccccc1)C(C(=O)/C=C/c1cccc(O)c1)C(=O)/C=C/c1cccc(O)c1 (stereo not given)

IC50 (MDA-MB-231; mda-mb-231): 45.1 ppm
SMILES: O=C1/C(=C/c2cn(-c3ccccc3)nc2-c2ccccc2)CN(Cc2ccccc2)C/C1=C\c1cn(-c2ccccc2)nc1-c1ccccc1

IC50 [6]: 0.253 µg/mL (≈ 0.52 µM)
SMILES: COc1cc(/C=C/C(=O)C(=NNc2ccc(C)cc2)C(=O)/C=C/c2ccc(O)c(OC)c2)ccc1O

IC50 (RAW264.7): 9.6 µM
SMILES: O=C(/C=C(O)/C=C/c1ccc(O)c(O)c1)c1ccccc1O

IC50 [8]: 10500 µM
SMILES: O=C1/C(=C/c2cn(-c3ccccc3)nc2-c2ccccc2)CNC/C1=C\c1cn(-c2ccccc2)nc1-c1ccccc1

IC50 (MDA-MB-231; mda-mb-231): 39.9 ppm | IC50 [8]: 6400 µM
SMILES: COc1ccc(-c2nn(-c3ccccc3)cc2/C=C2\CN(C)C/C(=C\c3cn(-c4ccccc4)nc3-c3ccc(OC)cc3)C2=O)cc1

IC50 (MDA-MB-231; mda-mb-231): 75.8 ppm
SMILES: COc1ccc(-c2nn(-c3ccccc3)cc2/C=C2\CCCC/C(=C\c3cn(-c4ccccc4)nc3-c3ccc(OC)cc3)C2=O)cc1

MIC (Bacillus subtilis): 3.12 µg/mL (≈ 5.61 µM)
SMILES: CCN1N=C(C(=NNc2ccccc2)C2=NN(CC)C(c3ccc(O)c(OC)c3)C2)CC1c1ccc(O)c(OC)c1 (stereo not given)

IC50 (RAW264.7): 4.9 µM
SMILES: O=C(/C=C(O)/C=C/c1ccc(O)c(O)c1)c1cc(Cl)ccc1O
